Assay results: patent US20100056526A1, “HETEROMONOCYCLIC COMPOUND AND USE THEREOF” (Takeda Pharmaceutical Company Limited, priority 2006, published 2010)

What was measured:
[1] = biological target: T1, PPARγ (Homo sapiens, UniProt P37231); assay: Evaluation of PPARγ activating action (luciferase reporter in PPARγ:RXRα:4ERPP/CHO-K1 cells); format: cell-based; details: CHO-K1, 24 h; test compound 10^−6 M; luciferase activity relative to control compound X (1 μM) = 100%, non-administration group = 0%; read-out: PPARγ activating action (activation % (10^−6 M))
T1 construct: expressed in transfected cells; host or cells: CHO-K1
T1 sequence (P37231 1-477 isoform P37231-2): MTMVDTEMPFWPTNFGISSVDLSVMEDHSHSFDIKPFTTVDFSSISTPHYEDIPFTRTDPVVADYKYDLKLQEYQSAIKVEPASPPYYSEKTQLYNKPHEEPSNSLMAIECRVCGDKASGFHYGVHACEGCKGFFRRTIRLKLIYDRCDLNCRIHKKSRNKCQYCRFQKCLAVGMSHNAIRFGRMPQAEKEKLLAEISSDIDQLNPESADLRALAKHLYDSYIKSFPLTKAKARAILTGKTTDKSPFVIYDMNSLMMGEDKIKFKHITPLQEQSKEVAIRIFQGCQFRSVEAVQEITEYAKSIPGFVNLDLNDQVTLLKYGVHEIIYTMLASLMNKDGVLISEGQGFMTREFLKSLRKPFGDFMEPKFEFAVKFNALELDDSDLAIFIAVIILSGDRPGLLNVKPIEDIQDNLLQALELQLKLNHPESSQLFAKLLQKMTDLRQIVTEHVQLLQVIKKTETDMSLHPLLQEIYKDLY
T1 sequence (P19793 1-462 partner): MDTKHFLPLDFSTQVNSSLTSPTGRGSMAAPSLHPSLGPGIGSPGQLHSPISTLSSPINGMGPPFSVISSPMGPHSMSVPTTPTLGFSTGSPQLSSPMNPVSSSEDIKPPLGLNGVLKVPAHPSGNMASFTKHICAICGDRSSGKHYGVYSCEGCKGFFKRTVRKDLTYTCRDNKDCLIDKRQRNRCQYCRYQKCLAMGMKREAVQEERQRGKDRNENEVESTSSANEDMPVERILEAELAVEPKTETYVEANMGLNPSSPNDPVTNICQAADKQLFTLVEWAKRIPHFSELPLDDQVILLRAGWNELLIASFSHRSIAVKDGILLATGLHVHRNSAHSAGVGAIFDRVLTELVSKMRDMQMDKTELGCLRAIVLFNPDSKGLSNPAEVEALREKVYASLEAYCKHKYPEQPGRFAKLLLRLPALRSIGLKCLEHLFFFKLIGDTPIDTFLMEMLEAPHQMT
Method in brief: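 Activity is expressed as percent, where vehicle gives 0% and 1 μM compound X gives 100%, based on luciferase luminescence. Reporter CHO-K1 cells co-expressing PPARγ:RXRα with a 4ERPP-driven luciferase were incubated with test compound for one day at 37 °C in medium with 0.1% fatty acid-free BSA.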

[2] = biological target: T2, human AT1 receptor (Homo sapiens, UniProt P30556); assay: Binding assay using human AT1 receptor-expressing CHO-K1 cell membrane fraction ([125I]-angiotensin II); details: 22.5 pM [125I]-angiotensin II, 9 μg AT1 membrane, 1 hr room temperature; read-out: AT1 receptor binding inhibitory action (IC50 (nM))
T2 construct: expressed in transfected cells; host or cells: CHO-K1
T2 sequence (P30556 1-359): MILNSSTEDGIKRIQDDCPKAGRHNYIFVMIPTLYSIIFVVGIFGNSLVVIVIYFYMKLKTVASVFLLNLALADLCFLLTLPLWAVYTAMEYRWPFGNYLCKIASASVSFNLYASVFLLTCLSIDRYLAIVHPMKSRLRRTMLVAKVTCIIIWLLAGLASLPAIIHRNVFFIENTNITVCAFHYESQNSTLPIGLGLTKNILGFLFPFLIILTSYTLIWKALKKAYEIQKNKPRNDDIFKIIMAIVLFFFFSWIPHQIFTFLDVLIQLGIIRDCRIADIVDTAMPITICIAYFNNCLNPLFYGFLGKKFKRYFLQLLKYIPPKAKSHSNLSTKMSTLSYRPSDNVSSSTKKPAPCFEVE
Method in brief: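 Radioligand displacement: test compound competed with [125I]-angiotensin II (22.5 pM) on stable CHO-K1 AT1 membrane fraction, 1 hr, room temperature, Tris pH 7.4/MgCl2 buffer ± 0.3 mg/mL BSA. Filtration then scintillation counting; 1 μM CV-11974 defined nonspecific binding. Values are IC50s.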

activation at 1 µM [1] | IC50 [2] | Structure (SMILES)
45.2% | 1.7 nM | C#CCC(C)Oc1ccc(-n2c(C)nc(CCC)c(Cc3ccc(-c4ccccc4-c4noc(=O)[nH]4)cc3)c2=O)cc1 (stereo not drawn) [Example 324, 2-methyl-3-{4-[(1-methylbut-3-yn-1-yl)oxy]phenyl}-5-{[2′-(5-oxo-4,5-dihydro-1,2,4-oxadiazol-3-yl)biphenyl-4-yl]methyl}-6-propylpyrimidin-4(3H)-one]
31.2% | 1.7 nM | CCCc1nc(C)n(-c2ccc(OC(C)C)cc2)c(=O)c1Cc1ccc(-c2ccccc2-c2noc(O)n2)cc1 [Example 88, 3-(4-isopropoxyphenyl)-2-methyl-5-{[2′-(5-oxo-4,5-dihydro-1,2,4-oxadiazol-3-yl)biphenyl-4-yl]methyl}-6-propylpyrimidin-4(3H)-one]
40% | 2.1 nM | CCCOc1ccc(-c2c(CC)nc(CCC)n(Cc3ccc(-c4ccccc4-c4noc(=O)[nH]4)cc3)c2=O)cc1 [Example 459, 6-ethyl-3-{[2′-(5-oxo-4,5-dihydro-1,2,4-oxadiazol-3-yl)biphenyl-4-yl]methyl}-5-(4-propoxyphenyl)-2-propylpyrimidin-4(3H)-one]
50.2% | 1.8 nM | CCCCc1nc(C(C)C)n(-c2ccc3c(c2)CCO3)c(=O)c1Cc1ccc(-c2ccccc2-c2noc(=O)[nH]2)cc1 [Example 118, 6-butyl-3-(2,3-dihydro-1-benzofuran-5-yl)-2-isopropyl-5-{[2′-(5-oxo-4,5-dihydro-1,2,4-oxadiazol-3-yl)biphenyl-4-yl]methyl}pyrimidin-4(3H)-one]
32.8% | 1.7 nM | CCCc1nc(C)n(-c2ccc3c(c2)C=CC(C)(C)O3)c(=O)c1Cc1ccc(-c2ccccc2-c2noc(=O)[nH]2)cc1 [Example 142, 3-(2,2-dimethyl-2H-chromen-6-yl)-2-methyl-5-{[2′-(5-oxo-4,5-dihydro-1,2,4-oxadiazol-3-yl)biphenyl-4-yl]methyl}-6-propylpyrimidin-4(3H)-one]
30% | 1.8 nM | CCCc1nc(CC)c(-c2ccc(OC)cc2)c(=O)n1Cc1ccc(-c2ccccc2-c2noc(O)n2)cc1 [Example 456, 6-ethyl-5-(4-methoxyphenyl)-3-{[2′-(5-oxo-4,5-dihydro-1,2,4-oxadiazol-3-yl)biphenyl-4-yl]methyl}-2-propylpyrimidin-4(3H)-one]
59% | 1.7 nM | CCCCc1nc(C)n(Cc2c(F)cccc2F)c(=O)c1Cc1ccc(-c2ccccc2-c2noc(=O)[nH]2)cc1 [Example 165, 6-butyl-3-(2,6-difluorobenzyl)-2-methyl-5-{[2′-(5-oxo-4,5-dihydro-1,2,4-oxadiazol-3-yl)biphenyl-4-yl]methyl}pyrimidin-4(3H)-one]
17.2% | 1.8 nM | CCCc1nc(C)n(-c2ccc(OC3CCCC3)cc2)c(=O)c1Cc1ccc(-c2ccccc2-c2noc(=O)[nH]2)cc1 [Example 319, 3-[4-(cyclopentyloxy)phenyl]-2-methyl-5-{[2′-(5-oxo-4,5-dihydro-1,2,4-oxadiazol-3-yl)biphenyl-4-yl]methyl}-6-propylpyrimidin-4(3H)-one]
57.1% | 2.5 nM | CCSc1nc(C)c(Cc2ccccc2)c(=O)n1Cc1ccc(-c2ccccc2-c2noc(=O)[nH]2)cc1 [Example 3, 5-benzyl-2-(ethylthio)-6-methyl-3-{[2′-(5-oxo-4,5-dihydro-1,2,4-oxadiazol-3-yl)biphenyl-4-yl]methyl}pyrimidin-4(3H)-one]
17.7% | 1.4 nM | CCCCc1nc(C)n(-c2ccc(OC(C)(C)COC)cc2)c(=O)c1Cc1ccc(-c2ccccc2-c2noc(=O)[nH]2)cc1 [Example 427, 6-butyl-3-[4-(2-methoxy-1,1-dimethylethoxy)phenyl]-2-methyl-5-{[2′-(5-oxo-4,5-dihydro-1,2,4-oxadiazol-3-yl)biphenyl-4-yl]methyl}pyrimidin-4(3H)-one]
18.1% | 1 nM | CCCc1nc(C)n(-c2ccc(OC3CCCC(=O)CC3)cc2)c(=O)c1Cc1ccc(-c2ccccc2-c2noc(=O)[nH]2)cc1 (stereo not drawn) [Example 437, 2-methyl-3-{4-[(4-oxocycloheptyl)oxy]phenyl}-5-{[2′-(5-oxo-4,5-dihydro-1,2,4-oxadiazol-3-yl)biphenyl-4-yl]methyl}-6-propylpyrimidin-4(3H)-one]
27.8% | 1.7 nM | CCCc1nc(C)n(-c2ccc(OC3CC3)cc2)c(=O)c1Cc1ccc(-c2ccccc2-c2noc(=O)[nH]2)cc1 [Example 265, 3-[4-(cyclopropyloxy)phenyl]-2-methyl-5-{[2′-(5-oxo-4,5-dihydro-1,2,4-oxadiazol-3-yl)biphenyl-4-yl]methyl}-6-propylpyrimidin-4(3H)-one]
28.2% | 1.8 nM | CCCc1nc(C)n(-c2ccc(OC(C)COC)cc2)c(=O)c1Cc1ccc(-c2ccccc2-c2noc(=O)[nH]2)cc1 (stereo not drawn) [Example 293, 3-[4-(2-methoxy-1-methylethoxy)phenyl]-2-methyl-5-{[2′-(5-oxo-4,5-dihydro-1,2,4-oxadiazol-3-yl)biphenyl-4-yl]methyl}-6-propylpyrimidin-4(3H)-one]
33.9% | 1.2 nM | CCCCc1nc(C)n(-c2ccc3c(c2)CC(C)(C)O3)c(=O)c1Cc1ccc(-c2ccccc2-c2noc(O)n2)cc1 [Example 234, 6-butyl-3-(2,2-dimethyl-2,3-dihydro-1-benzofuran-5-yl)-2-methyl-5-{[2′-(5-oxo-4,5-dihydro-1,2,4-oxadiazol-3-yl)biphenyl-4-yl]methyl}pyrimidin-4(3H)-one]
29.9% | 1.6 nM | CCCc1nc(C)n(-c2ccc(OC(C)(C)C(C)=O)cc2)c(=O)c1Cc1ccc(-c2ccccc2-c2noc(=O)[nH]2)cc1 [Example 440, 3-[4-(1,1-dimethyl-2-oxopropoxy)phenyl]-2-methyl-5-{[2′-(5-oxo-4,5-dihydro-1,2,4-oxadiazol-3-yl)biphenyl-4-yl]methyl}-6-propylpyrimidin-4(3H)-one]
29.8% | 1.3 nM | CCCCc1nc(C)n(CC(=O)C(C)(C)C)c(=O)c1Cc1ccc(-c2ccccc2-c2noc(=O)[nH]2)cc1 [Example 37, 6-butyl-3-(3,3-dimethyl-2-oxobutyl)-2-methyl-5-{[2′-(5-oxo-4,5-dihydro-1,2,4-oxadiazol-3-yl)biphenyl-4-yl]methyl}pyrimidin-4(3H)-one]
30.4% | 1.9 nM | CCCc1nc(C)c(-c2ccc(OC(C)C)nc2)c(=O)n1Cc1ccc(-c2ccccc2-c2noc(=O)[nH]2)cc1F [Example 482, 3-{[3-fluoro-2′-(5-oxo-4,5-dihydro-1,2,4-oxadiazol-3-yl)biphenyl-4-yl]methyl}-5-(6-isopropoxypyridin-3-yl)-6-methyl-2-propylpyrimidin-4(3H)-one]
33.5% | 1.3 nM | CCCc1nc(CC)n(-c2ccc(OC3CCOC(C)C3)cc2)c(=O)c1Cc1ccc(-c2ccccc2-c2noc(=O)[nH]2)cc1 (stereo not drawn) [Example 424, 2-ethyl-3-{4-[(2-methyltetrahydro-2H-pyran-4-yl)oxy]phenyl}-5-{[2′-(5-oxo-4,5-dihydro-1,2,4-oxadiazol-3-yl)biphenyl-4-yl]methyl}-6-propylpyrimidin-4(3H)-one]
